The source of these data is article PMC10527014 (Antiviral research, 2023).

The term IC50 denotes the midpoint of a concentration-inhibition curve. What is called IC90 is the concentration needed for an effect of 90%.

Where two headings read alike, the source gives them in different places.

Data set [1] relates to EV-D68. As to conditions: mouse model of EV-D68-associated AFM; ref Hixon et al., 2017; cited from earlier work.
Data set [2] concerns the target T1, pregnane X-receptor (PXR) (Homo sapiens, UniProt O75469).
T1 sequence (O75469 1-434): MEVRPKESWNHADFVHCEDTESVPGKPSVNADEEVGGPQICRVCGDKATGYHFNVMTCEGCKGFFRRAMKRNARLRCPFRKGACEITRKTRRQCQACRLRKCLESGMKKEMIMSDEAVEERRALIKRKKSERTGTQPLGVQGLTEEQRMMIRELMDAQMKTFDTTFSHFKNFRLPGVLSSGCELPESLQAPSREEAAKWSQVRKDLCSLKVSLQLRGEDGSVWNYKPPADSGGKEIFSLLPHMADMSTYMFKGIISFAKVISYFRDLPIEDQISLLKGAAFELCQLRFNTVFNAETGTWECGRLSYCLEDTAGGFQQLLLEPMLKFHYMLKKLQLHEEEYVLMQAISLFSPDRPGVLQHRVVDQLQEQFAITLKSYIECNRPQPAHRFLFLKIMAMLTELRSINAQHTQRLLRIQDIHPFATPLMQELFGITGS
Nature of the data set: PXR agonist activity.

In a further data set the test system is EV-71. The settings on record: read-out: IC50 against EV-71 in vitro; ref Zhang et al., 2012; cited from earlier work.
The test system of a further data set is mouse-adapted CVB5. Nature of the data set: Mouse model of CVB5-induced pancreatitis. As to conditions: CVB5-infected mice, Fig. S20. The class given is in vivo, BALB/c mice.
For data set [3], the system named is CYP3A4. As to conditions: 1 μM, rifampicin as positive control, previously tested.
Data set [4] deals with Coxsackievirus B3-Woodruff (CVB3). The class given is cell-based. As to conditions: Coxsackievirus, B3|CVB3, HeLa, read-out: Inhibitory concentration EC50 against CVB3-Woodruff.
Data set [5] deals with EV-D68. As to conditions: read-out: EC50 against EV-D68; ref Liu et al., 2015b; cited from earlier work.
Data set [6] relates to 215 clinical isolates of EV serotypes. As to conditions: ~90% of isolates; ref Pevear et al., 1999; cited from earlier work.
A further data set deals with Coxsackievirus B5 (CVB5). Nature of the data set: CVB5 CPE rescue. The settings on record: Enterovirus B, B5|CVB5, Vero, read-out: EC50 against CVB5. The class given is cell-based.
For data set [7], the system named is Coxsackievirus B3-Woodruff (CVB3). Put plainly: microbe, parasite or virus in culture. As to conditions: B3|CVB3, HeLa.
In data set [8] the test system is EV-D68 MP30 PP (mouse-adapted US/MO/14-18949). The settings on record: day 3 p.i., during animal model development; ref Hurst et al., 2019; cited from earlier work.
For data set [9], the target named is CYP3A4 (Homo sapiens, UniProt P08684). The settings on record: human liver microsomes, at higher concentrations (Fig. S21). For orientation: Liver microsomes are vesicles of endoplasmic reticulum, rich in cytochrome P450 enzymes.
Data set [10] relates to enterovirus / picornavirus infections. As to conditions: cited from earlier work.
For data set [11], the system named is EV-D68 MP30 PP (mouse-adapted). Nature of the data set: EV-D68 neurological infection. The class given is in vivo, AG129 mice.
In data set [12] the test system is EV-D68 MP30 PP (mouse-adapted US/MO/14-18949). Put plainly: EV-D68 respiratory infection model in four-week-old AG129 mice. As to conditions: days 1 and 3 p.i., P≤0.05 vs placebo; guanidine 100 mg/kg/day. In kind it is in vivo.

Chain of CYP3A4 (Homo sapiens, UniProt P08684) (P08684 whole entry): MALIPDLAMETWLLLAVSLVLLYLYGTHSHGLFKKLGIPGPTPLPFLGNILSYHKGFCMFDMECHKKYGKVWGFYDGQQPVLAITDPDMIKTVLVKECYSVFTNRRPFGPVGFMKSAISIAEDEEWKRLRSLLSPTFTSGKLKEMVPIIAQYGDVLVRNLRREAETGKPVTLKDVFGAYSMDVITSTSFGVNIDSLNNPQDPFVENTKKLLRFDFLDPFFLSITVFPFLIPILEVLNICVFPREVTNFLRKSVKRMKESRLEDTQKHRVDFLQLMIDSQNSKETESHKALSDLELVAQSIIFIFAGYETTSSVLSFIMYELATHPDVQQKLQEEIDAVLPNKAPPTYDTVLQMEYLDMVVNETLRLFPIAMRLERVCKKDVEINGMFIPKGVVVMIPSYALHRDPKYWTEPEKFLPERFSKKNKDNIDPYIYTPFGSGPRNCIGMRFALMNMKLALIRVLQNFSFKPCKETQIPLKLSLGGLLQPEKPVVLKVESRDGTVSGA

Take `CNCCC(Oc1ccc(C(F)(F)F)cc1)c1ccccc1` (stereo not shown) [fluoxetine]: in the data set with EV-D68 [1], the Viral load result is “did not reduce the viral load”.

With `Cc1cc(CCCOc2c(C)cc(-c3noc(C(F)(F)F)n3)cc2C)on1` [Pleconaril], the “PXR agonism (in words)” value in data set [2] is listed as “neither 11526092 nor pleconaril is an agonist”. Moreover, the IC50 in the data set with EV-71 was 340 to 1420 nM. Besides, the “Histology of pancreatic tissue” value with mouse-adapted CVB5 was “no signs of tissue damage”. In addition, in the data set on CYP3A4 [3], the “CYP3A induction, of control” value is 13 % of control. Further, in the data set with CYP3A4 [3] (single donor in duplicate), the CYP3A induction is on record as 1.7 x. The EC50 in data set [4] was 150 ± 10 nM; with EV-D68 [5], 430 nM; with Coxsackievirus B5 (CVB5), 0.66 nM; in data set [7] (read-out: Inhibitory concentration EC50 against CVB3-Woodruff, HeLa cells, adding drug to virus and then infecting at MOI 1 PFU / cell, ± SEM), 45 nM; in [7] (read-out: Inhibitory concentration EC50 against CVB3-Woodruff, HeLa cells, adding drug to virus and then infecting at MOI 3 PFU / cell, ± SEM) it was 333 ± 210 nM. Also, the IC90 in data set [6] is no more than 180 nM. Also, the Lung virus titers entry in data set [8] was “did not demonstrate any antiviral activity”. Besides, on CYP3A4 [9], the “Effect on CYP3A4 (in words)” value is on record as “activation (or autoactivation) of CYP3A4”. In data set [10] (400 mg three times a day over five days, ref Hayden et al., 2003), the “Effect on the treatment of the common cold” value is recorded as “no statistically significant effect”. Besides, the “Patients with clinical improvement” value in data set [10] (chronic meningoencephalitis, ref Aradottir et al., 2001, Rotbart et al.) is listed as 78%. Also, in [10] (neonates with severe enteroviral hepatitis, ref Aradottir et al., 2001), the “Neonates in whom treatment proved effective” value is given as 2 of 3.

In the case of `Cl.N=C(N)N` [guanidine, Guanidine HCl, reference compound], the Neurological scores entry in data set [11] (post-challenge study) is recorded as “reduced the neurological score on day 3 post-infection”. The “Mice protected from challenge infection” value in data set [11] (post-challenge study (treatment 4 hours post-infection)) is listed as greater than 80%; in [11] (pre-challenge study (treatment 2 hours pre-infection)), 100%. The “Protection from weight loss” value in data set [11] (pretreatment, P≤0.0001, Fig. S19) is “significant protection”. Moreover, in [12], the Lung virus titers result is on record as “showed a reduction”.
